Active and inactive are the calls of the source.
How the values were obtained:
Format in all cases: functional
[1] = biological target: Intestinal-type alkaline phosphatase (Homo sapiens, UniProt P09923); assay: activation of human intestinal alkaline phosphatase – biochemical, dose response (AID 488873)
[2] = biological target: T1, Alkaline phosphatase, tissue-nonspecific isozyme (Homo sapiens, UniProt P05186); assay: activation of tissue-nonspecific alkaline phosphatase – biochemical, TNAP isozyme, mouse IAP uHTS hits, selectivity assay for mouse IAP activator project, dose response (AID 488880)
T1 sequence (P05186 whole entry): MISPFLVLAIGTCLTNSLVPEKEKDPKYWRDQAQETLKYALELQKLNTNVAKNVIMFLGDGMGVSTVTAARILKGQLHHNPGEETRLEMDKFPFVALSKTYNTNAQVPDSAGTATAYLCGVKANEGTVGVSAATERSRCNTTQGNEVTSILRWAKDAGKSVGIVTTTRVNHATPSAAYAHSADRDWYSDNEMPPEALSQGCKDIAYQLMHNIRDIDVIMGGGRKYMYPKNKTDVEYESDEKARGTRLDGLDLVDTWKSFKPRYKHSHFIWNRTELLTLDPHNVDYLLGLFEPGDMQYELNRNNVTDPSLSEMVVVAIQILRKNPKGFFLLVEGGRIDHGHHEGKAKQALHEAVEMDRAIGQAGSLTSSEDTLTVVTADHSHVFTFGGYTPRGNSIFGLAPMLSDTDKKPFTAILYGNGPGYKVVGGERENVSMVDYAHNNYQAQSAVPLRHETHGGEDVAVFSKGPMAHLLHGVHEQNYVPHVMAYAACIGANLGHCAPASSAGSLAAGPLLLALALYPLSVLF

[3] = biological target: Intestinal-type alkaline phosphatase (Mus musculus, UniProt P24822); assay: mouse intestinal alkaline phosphatase activators, dose response, biochemical, luminescence, uHTS hits (AID 488783)
INS1 = assay: INS-1E survival protection against cytokine death – cell-based, luminescence, retest, dose response (AID 449756); settings: Rattus norvegicus;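 also: cell death triggered by IL-1 beta plus TNF-alpha plus IFN-gamma mixture; protective hits raise ATP signal compared with cytokine alone wells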
[4] = biological target: T2, G-protein coupled receptor 35 (Homo sapiens, UniProt Q9HC97); assay: SAR analysis of Antagonists of the GPR35 Receptor using an Image-Based Assay - Set 3. [Related pubchem assays (depositor defined):AID2013, AID2026]
Cannabinoid receptor 2 [5] = biological target: T3, Cannabinoid receptor 2 (Homo sapiens, UniProt P34972); assay: SAR analysis of agonists of the Cannabinoid Receptor 2 using an Image-Based Assay. [Related pubchem assays (depositor defined):AID2013, AID2026]
[6] = biological target: T4, G-protein coupled receptor 55 (Homo sapiens, UniProt Q9Y2T6); assay: SAR Analysis of Selective Antagonists of GPR55 using an Image-Based Assay - Set 4. [Related pubchem assays (depositor defined):AID2013, AID2026]
Cannabinoid receptor 1 [7] = biological target: T5, Cannabinoid receptor 1 (Homo sapiens, UniProt P21554); assay: SAR analysis of antagonists of the Cannabinoid Receptor 1 using an Image-Based Assay - Set 2. [Related pubchem assays (depositor defined):AID2013, AID2026]
[8] = loss of viability in HepG2 cells – cell-based, CellTiter-Glo, cherry-picked, cytotoxicity control for Shn3 inhibitor project, dose response (AID 624134)
[9] = biological target: T4, G-protein coupled receptor 55; assay: inhibition of LPI-stimulated GPR55 beta-arrestin translocation – imaging, U2OS, beta-arrestin-GFP, LPI agonist, primary screen (AID 2013);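 also: antagonist potency measured as reduced agonist-driven arrestin aggregation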
Cannabinoid receptor 2 [10] = biological target: T3, Cannabinoid receptor 2; assay: SAR analysis of antagonists of the Cannabinoid Receptor 2 using an Image-Based Assay. [Related pubchem assays (depositor defined):AID2013, AID2026]
Cannabinoid receptor 2 [11] = biological target: T3, Cannabinoid receptor 2; assay: SAR analysis of antagonists of the Cannabinoid Receptor 2 using an Image-Based Assay - Set 3. [Related pubchem assays (depositor defined):AID2013, AID2026]
Cannabinoid receptor 1 [12] = biological target: T5, Cannabinoid receptor 1; assay: SAR analysis of agonists of the Cannabinoid Receptor 1 using an Image-Based Assay - Set 2. [Related pubchem assays (depositor defined):AID2013, AID2026]
[13] = non-specific 3'UTR reporter inhibition in Clone20-Shn3RL – cell-based, Renilla luciferase, cherry-picked, counter-screen for Shn3 inhibitor project, dose response (AID 624133)
Cannabinoid receptor 2 [14] = biological target: T3, Cannabinoid receptor 2; assay: SAR analysis of agonists of the Cannabinoid Receptor 2 using an Image-Based Assay - Set 3. [Related pubchem assays (depositor defined):AID2013, AID2026]
Cannabinoid receptor 1 [15] = biological target: T5, Cannabinoid receptor 1; assay: SAR analysis of antagonists of the Cannabinoid Receptor 1 using an Image-Based Assay - Set 4. [Related pubchem assays (depositor defined):AID2013, AID2026]
[16] = reduction of Shn3 3'UTR-driven luciferase in osteoblasts – cell-based, Clone20 osteoblasts, firefly luciferase, cherry-picked, dose response (AID 624132);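 also: firefly luciferase luminescence from reporter carrying the Shn3 3'UTR in osteoblasts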
[17] = biological target: T2, G-protein coupled receptor 35; assay: SAR analysis of Agonists of the GPR35 Receptor using an Image-Based Assay - Set 2. [Related pubchem assays (depositor defined):AID2013, AID2026]
[18] = biological target: T4, G-protein coupled receptor 55; assay: blockade of LPI-induced GPR55 arrestin translocation – imaging, U2OS, beta-arrestin-GFP, LPI agonist, set 2, SAR follow-up (AID 2820)

T4 sequence (Q9Y2T6 whole entry): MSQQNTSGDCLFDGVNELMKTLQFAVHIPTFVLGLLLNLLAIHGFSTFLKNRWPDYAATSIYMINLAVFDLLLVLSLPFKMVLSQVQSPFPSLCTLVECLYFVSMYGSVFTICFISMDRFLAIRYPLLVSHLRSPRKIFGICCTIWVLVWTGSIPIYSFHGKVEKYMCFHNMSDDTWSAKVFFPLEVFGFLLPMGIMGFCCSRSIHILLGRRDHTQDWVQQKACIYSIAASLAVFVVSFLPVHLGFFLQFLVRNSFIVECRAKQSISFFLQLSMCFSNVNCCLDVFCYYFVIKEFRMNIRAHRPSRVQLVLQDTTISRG
T5 sequence (P21554 whole entry): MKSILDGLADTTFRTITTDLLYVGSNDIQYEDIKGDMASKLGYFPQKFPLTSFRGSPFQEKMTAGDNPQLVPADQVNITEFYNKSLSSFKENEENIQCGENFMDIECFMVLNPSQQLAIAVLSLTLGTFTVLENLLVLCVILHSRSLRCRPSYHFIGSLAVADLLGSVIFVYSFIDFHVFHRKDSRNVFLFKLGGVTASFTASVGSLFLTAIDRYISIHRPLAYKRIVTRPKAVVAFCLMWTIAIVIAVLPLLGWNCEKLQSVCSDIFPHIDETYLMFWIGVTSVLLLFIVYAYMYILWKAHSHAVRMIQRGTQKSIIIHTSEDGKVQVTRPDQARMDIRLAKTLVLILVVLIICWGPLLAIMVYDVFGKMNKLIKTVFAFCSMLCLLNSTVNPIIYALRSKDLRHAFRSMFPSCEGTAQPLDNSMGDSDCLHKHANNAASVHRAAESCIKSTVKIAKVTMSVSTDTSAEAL
T3 sequence (P34972 whole entry): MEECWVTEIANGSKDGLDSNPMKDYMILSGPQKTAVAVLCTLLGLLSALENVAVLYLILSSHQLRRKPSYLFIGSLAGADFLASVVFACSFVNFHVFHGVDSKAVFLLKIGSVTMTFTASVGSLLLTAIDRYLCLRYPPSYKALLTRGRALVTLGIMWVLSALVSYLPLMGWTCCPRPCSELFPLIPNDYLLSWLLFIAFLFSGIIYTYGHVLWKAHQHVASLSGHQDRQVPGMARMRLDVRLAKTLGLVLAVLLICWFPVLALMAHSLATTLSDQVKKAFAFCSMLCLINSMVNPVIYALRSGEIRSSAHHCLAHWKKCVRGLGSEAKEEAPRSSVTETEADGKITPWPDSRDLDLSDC
T2 sequence (Q9HC97 whole entry): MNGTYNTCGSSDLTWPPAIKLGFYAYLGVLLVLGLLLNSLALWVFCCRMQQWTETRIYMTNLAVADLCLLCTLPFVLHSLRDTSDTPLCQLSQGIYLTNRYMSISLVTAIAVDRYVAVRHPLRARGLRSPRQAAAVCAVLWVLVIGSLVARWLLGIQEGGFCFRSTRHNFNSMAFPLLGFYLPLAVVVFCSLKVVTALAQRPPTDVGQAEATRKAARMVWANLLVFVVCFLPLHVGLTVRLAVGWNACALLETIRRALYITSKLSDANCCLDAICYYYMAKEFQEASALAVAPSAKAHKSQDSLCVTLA
Intestinal-type alkaline phosphatase (Mus musculus, UniProt P24822), sequence (P24822 whole entry): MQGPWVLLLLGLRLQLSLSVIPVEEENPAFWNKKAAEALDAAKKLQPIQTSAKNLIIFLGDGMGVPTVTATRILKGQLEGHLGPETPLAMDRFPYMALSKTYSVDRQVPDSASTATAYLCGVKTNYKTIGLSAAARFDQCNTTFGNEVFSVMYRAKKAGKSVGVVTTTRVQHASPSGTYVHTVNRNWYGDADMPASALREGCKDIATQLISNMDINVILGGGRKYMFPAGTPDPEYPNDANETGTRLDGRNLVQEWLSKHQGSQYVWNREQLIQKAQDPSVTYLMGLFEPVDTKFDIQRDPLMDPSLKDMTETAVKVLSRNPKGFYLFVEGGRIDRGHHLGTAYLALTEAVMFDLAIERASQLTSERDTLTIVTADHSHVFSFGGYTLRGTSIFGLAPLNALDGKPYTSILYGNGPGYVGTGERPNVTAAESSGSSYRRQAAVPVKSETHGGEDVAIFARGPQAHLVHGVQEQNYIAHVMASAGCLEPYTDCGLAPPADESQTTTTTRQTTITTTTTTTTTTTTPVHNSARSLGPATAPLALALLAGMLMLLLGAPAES
Intestinal-type alkaline phosphatase (Homo sapiens, UniProt P09923), sequence (P09923 whole entry): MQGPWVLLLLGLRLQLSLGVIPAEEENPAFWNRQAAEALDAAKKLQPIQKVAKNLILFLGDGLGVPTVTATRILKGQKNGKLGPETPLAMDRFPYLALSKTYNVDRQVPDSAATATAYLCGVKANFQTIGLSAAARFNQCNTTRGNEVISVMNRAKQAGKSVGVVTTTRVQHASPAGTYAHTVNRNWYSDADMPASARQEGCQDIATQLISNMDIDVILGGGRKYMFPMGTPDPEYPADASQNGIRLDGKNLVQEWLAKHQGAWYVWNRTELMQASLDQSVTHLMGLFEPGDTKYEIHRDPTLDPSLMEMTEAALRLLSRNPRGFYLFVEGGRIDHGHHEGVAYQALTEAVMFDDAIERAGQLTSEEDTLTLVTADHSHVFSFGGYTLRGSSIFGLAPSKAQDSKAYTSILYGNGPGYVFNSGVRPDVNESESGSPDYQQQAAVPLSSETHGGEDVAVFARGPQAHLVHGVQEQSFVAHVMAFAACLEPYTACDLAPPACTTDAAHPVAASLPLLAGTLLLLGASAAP

| EC50 [1] | EC50 [2] | EC50 [3] | SMILES | AC50 (INS1) | IC50 [4] | EC50 (Cannabinoid receptor 2 [5]) | IC50 [6] | IC50 (Cannabinoid receptor 1 [7]) | AC50 [8] | IC50 [9] | IC50 (Cannabinoid receptor 2 [10]) | IC50 (Cannabinoid receptor 2 [11]) | EC50 (Cannabinoid receptor 1 [12]) | AC50 [13] | EC50 (Cannabinoid receptor 2 [14]) | IC50 (Cannabinoid receptor 1 [15]) | AC50 [16] | EC50 [17] | IC50 [18] |
| --- | --- | --- | --- | --- | --- | --- | --- | --- | --- | --- | --- | --- | --- | --- | --- | --- | --- | --- | --- |
| 60.3 µM (active) | 58.7 µM (active) | 62.7 µM (active) | Cc1ccc(NS(=O)(=O)c2ccc3nc(O)oc3c2)c(C)c1 |  |  |  |  |  |  |  |  |  |  |  |  |  |  |  |  |
|  |  |  | Cc1nc(N2CCN(C(=O)c3ccco3)CC2)c2c3c(sc2n1)CC(C)CC3 (centres undefined) | 6.56 µM (active) | > 32 µM (inactive) | > 32 µM (inactive) | 0.527 µM (active) | > 32 µM (inactive) | 50.5 µM (active) | 0.653 µM (active) | > 32 µM (inactive) | > 32 µM (inactive) | > 32 µM (inactive) | 4.08 µM (active) | 28.2 µM (inactive) | 3.17 µM (active) | 2.33 µM (active) | > 32 µM (inactive) | 0.342 µM (active) |

— ChEMBL document CHEMBL1201862, “PubChem BioAssay data set” (2004)
